One series concerns the target T1, SqrR (Rhodobacter capsulatus, UniProt D5AT91).
T1 construct: recombinant, full-length, reduced C9S protomer 12295 amu
T1 sequence (D5AT91 15-124): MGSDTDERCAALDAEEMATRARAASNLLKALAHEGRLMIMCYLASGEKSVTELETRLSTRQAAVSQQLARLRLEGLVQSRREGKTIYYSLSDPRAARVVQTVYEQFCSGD
As to the kind of experiment: fluorescence anisotropy of DNA dissociation; LC-ESI-MS of adducts. It is filed as binding. As to conditions: covalent; pseudo-first-order oxidation of C41/C107; 20-fold excess sulfane sulfur, persulfide made in situ; DNA-bound SqrR; 25 mM HEPES pH 7.0, 400 mM NaCl, 1 mM EDTA, 25°C. The text has this:
fluorescence anisotropy of DNA dissociation; LC-ESI-MS of adducts on SqrR
(Fluorescence polarisation rises when a labelled molecule tumbles more slowly, as on binding a larger partner.)

The test system of series [1] is SqrR C9S, GSSH-treated (oxidized) (Rhodobacter capsulatus (SB1003?)). As to the kind of experiment: fluorescence anisotropy. The settings on record: SqrR titrated into fluorescein-labeled operator in quartz cuvette without TCEP, buffer, salt, pH and temperature not given in the ….
In series [2] the test system is SqrR C9S, CysSSH-treated (oxidized) (Rhodobacter capsulatus (SB1003?)). Description: fluorescence anisotropy. The settings on record: SqrR titrated into fluorescein-labeled operator in quartz cuvette without TCEP, buffer, salt, pH and temperature not given in the ….
The test system of series [3] is SqrR C9S (reduced) (Rhodobacter capsulatus (SB1003?)). Description: fluorescence anisotropy. As to conditions: SqrR titrated into fluorescein-labeled operator in quartz cuvette without TCEP, buffer, salt, pH and temperature not given in the ….
Series [4] deals with T2, SQR (Rhodobacter capsulatus, UniProt D5APH8).
T2 sequence (D5APH8 1-427): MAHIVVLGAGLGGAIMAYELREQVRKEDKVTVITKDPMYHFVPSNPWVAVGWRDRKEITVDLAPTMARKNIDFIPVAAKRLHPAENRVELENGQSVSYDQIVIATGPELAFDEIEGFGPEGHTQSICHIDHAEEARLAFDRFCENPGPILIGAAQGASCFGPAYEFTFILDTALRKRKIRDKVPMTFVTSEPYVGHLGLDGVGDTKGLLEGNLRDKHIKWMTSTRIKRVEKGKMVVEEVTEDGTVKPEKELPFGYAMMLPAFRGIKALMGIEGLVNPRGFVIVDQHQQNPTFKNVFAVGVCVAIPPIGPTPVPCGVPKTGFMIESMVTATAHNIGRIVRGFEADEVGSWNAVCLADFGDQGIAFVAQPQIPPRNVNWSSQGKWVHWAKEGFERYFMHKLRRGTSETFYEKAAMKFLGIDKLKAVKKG
Description: steady-state sulfide:quinone reductase assay. It is filed as biochemical. As to conditions: electron acceptor at 100 μM; 4 mM KCN as S0 acceptor, Na2S 0-640 μM, 100 nM SQR.

The target in series [5] is T2, SQR. As to the kind of experiment: co-purification. It is filed as binding. As to conditions: noncovalently bound.

In the case of `N[C@@H](CSS)C(=O)O` [cysteine persulfide], on SqrR, the “kox [x 10^-3 s^-1]^a / CSSH” value was 3.8 ± 0.1 x 10^-3 s^-1.

Take “TGACATATTCACAACTCGGAATGTAA / TTACATTCCGAGTGGTGAATATGTCA”: the Ka was 2.5 10^5 M-1 in series [1], 1.8 10^5 M-1 in series [2] and 270 10^5 M-1 in series [3].

`CC1=CC(=O)c2ccccc2C1=O` [menadione]: the “steady-state sulfide:quinone reductase assay” value on SQR [4] was “the steady-state activity was higher with MD”.

`N[C@@H](CCC(=O)N[C@@H](CSS)C(=O)NCC(=O)O)C(=O)O` [glutathione persulfide]: on SqrR, the “kox [x 10^-3 s^-1]^a / GSSH” value is 0.86 ± 0.05 x 10^-3 s^-1. Consider `Cc1cc2nc3c(=O)[nH]c(=O)nc-3n(C[C@H](O)[C@H](O)[C@H](O)COP(=O)(O)OP(=O)(O)OC[C@H]3O[C@@H](n4cnc5c(N)ncnc54)[C@H](O)[C@@H]3O)c2cc1C` [flavin adenine dinucleotide], for which, at SQR [5], the co-purification entry is “recombinant R. capsulatus SQR noncovalently bound with flavin adenine dinucleotide (FAD)”. Take `COC1=C(OC)C(=O)C(CC=C(C)C)=C(C)C1=O` [ubiquinone-1]: on SQR [4], the “steady-state sulfide:quinone reductase assay” value is listed as “the activity with UQ-1 was also sufficient for further analyses”.

The record behind these values is paper PMC9995734, “Polysulfide metabolizing enzymes influence SqrR-mediated sulfide-induced transcription by impacting intracellular polysulfide dynamics” (PNAS Nexus, 2023).
